Results from patent USRE48461E1, “Modulation of androgen receptor expression” (Ionis Pharmaceuticals, Inc., priority 2012, dated 2021).
l = locked nucleic acid (LNA); d = 2'-deoxy (DNA)

Legend:
Format in all cases: cell-based, human
TMPRSS2 mRNA = TMPRSS2 mRNA levels in LMR20 cells; conditions: LMR20 cells; for TMPRSS2 mRNA levels (% baseline value) after treatment with DHT: DHT 10 nM 72 hrs; for TMPRSS2 mRNA levels (% baseline value) after treatment with R1881: R1881 10 nM 72 hrs; for TMPRSS2 mRNA levels (% baseline value) of cells without AR agonist treatment: no AR agonist
Protocol: (§1) LMR20 cells were plated at 1,500 cells per well in phenol red-free medium with CSS.

KLK2 mRNA = KLK2 mRNA (AR target gene) in C4-2B MR cells
AR mRNA [1] = test: AR mRNA levels in LMR20 cells (with/without DHT or R1881); conditions: LMR20 cells; for AR mRNA levels (% baseline value) after treatment with DHT: DHT 10 nM 72 hrs; for AR mRNA levels (% baseline value) after treatment with R1881: R1881 10 nM 72 hrs; for AR mRNA levels (% baseline value) of cells without AR agonist treatment: no AR agonist
Protocol: as §1

[2] = tested on: prostate-specific antigen (PSA) mRNA; test: PSA mRNA levels in LMR20 cells; conditions: LMR20 cells; for PSA mRNA levels (% baseline value) after treatment with DHT: DHT 10 nM 72 hrs; for PSA mRNA levels (% baseline value) after treatment with R1881: R1881 10 nM 72 hrs; for PSA mRNA levels (% baseline value) of cells without AR agonist treatment: no AR agonist
Protocol: LMR20 cells were plated at 1,500 cells per well in phenol red-free medium with CSS. […] Results are presented in Tables 43-45 as mRNA levels expressed as a percentage of the baseline values. mRNA levels may be lowered or increased after treatment.

AR mRNA [3] = test: AR mRNA in LnCaP cells by free uptake (hAR_LTS00943); conditions: 24 hrs
Protocol: Cells were plated at a concentration of 4,000 cells/well in 96-well plates. ISIS oligonucleotides, specified in Table 68, were added individually at 0.02 μM, 0.10 μM, 0.50 μM, 2.50 μM, or 10.00 μM. After an incubation period of 24 hrs, mRNA levels were measured using primer probe set hAR_LTS00943.

C4-2B MR cells = test: Proliferation of MDV3100-resistant C4-2B cells (CellTiter 96); conditions: 6 days
Protocol: ISIS 549372, ISIS 549434, ISIS 549458, and ISIS 554221 were each added to the culture media at 0.04 μM, 0.20 μM, 1.00 μM, and 5.00 μM concentration of antisense oligonucleotide. ISIS 347526 was included as a negative control. After a treatment period of 6 days, the proliferative capacity of the cancer cells was measured with using CellTiter 96® AQueous One Solution Cell Proliferation kit (Promega), following the manufacturer's instructions. Results are presented in Table 41 as percent inhibition of proliferation, relative to non-treated cells.

total AR mRNA = test: Total (full-length) AR mRNA in C4-2B MR cells, free uptake; conditions: free uptake, 24 hrs
Protocol: Cells were plated at a density of 40,000 cells per well in 96-well plates and cultured in RPMI1640 medium with 10% fetal bovine serum. […] ISIS 549372, ISIS 549458, ISIS 549434, and ISIS 554221 were each added at 0.04 μM, 0.20 μM, 1.00 μM, and 5.00 μM concentrations of antisense oligonucleotide to culture media for free uptake by the cells. […] After a treatment period of 24 hrs, total AR mRNA levels were measured by quantitative real-time PCR using primer probe set RTS3559.

KLK3 mRNA = KLK3 mRNA (AR target gene) in C4-2B MR cells

554221 (ACCAAGTTTCTTCAGC; sugars from the 5' end l3 d10 l3, all phosphorothioate, methylation of C not given here) [compound 554221]
TMPRSS2 mRNA levels (% baseline value) after treatment with DHT (TMPRSS2 mRNA; ASO 0.04 μM): 121 % baseline value | TMPRSS2 mRNA levels (% baseline value) after treatment with DHT (TMPRSS2 mRNA; ASO 0.20 μM): 118 % baseline value | TMPRSS2 mRNA levels (% baseline value) after treatment with DHT (TMPRSS2 mRNA; ASO 1.0 μM): 122 % baseline value | TMPRSS2 mRNA levels (% baseline value) after treatment with DHT (TMPRSS2 mRNA; ASO 5.0 μM): 114 % baseline value | TMPRSS2 mRNA levels (% baseline value) after treatment with R1881 (TMPRSS2 mRNA; ASO 0.04 μM): 136 % baseline value | TMPRSS2 mRNA levels (% baseline value) after treatment with R1881 (TMPRSS2 mRNA; ASO 0.20 μM): 134 % baseline value | TMPRSS2 mRNA levels (% baseline value) after treatment with R1881 (TMPRSS2 mRNA; ASO 1.0 μM): 125 % baseline value | TMPRSS2 mRNA levels (% baseline value) after treatment with R1881 (TMPRSS2 mRNA; ASO 5.0 μM): 122 % baseline value | TMPRSS2 mRNA levels (% baseline value) of cells without AR agonist treatment (TMPRSS2 mRNA; ASO 0.04 μM): 95 % baseline value | TMPRSS2 mRNA levels (% baseline value) of cells without AR agonist treatment (TMPRSS2 mRNA; ASO 0.20 μM): 117 % baseline value | TMPRSS2 mRNA levels (% baseline value) of cells without AR agonist treatment (TMPRSS2 mRNA; ASO 1.0 μM): 77 % baseline value | TMPRSS2 mRNA levels (% baseline value) of cells without AR agonist treatment (TMPRSS2 mRNA; ASO 5.0 μM): 73 % baseline value | Percent inhibition of KLK2 mRNA in C4-2B MR cells (KLK2 mRNA; 0.04 μM): 24% | Percent inhibition of KLK2 mRNA in C4-2B MR cells (KLK2 mRNA; 0.20 μM): 25% | Percent inhibition of KLK2 mRNA in C4-2B MR cells (KLK2 mRNA; 1.00 μM): 56% | Percent inhibition of KLK2 mRNA in C4-2B MR cells (KLK2 mRNA; 5.00 μM): 66% | AR mRNA levels (% baseline value) after treatment with DHT (AR mRNA [1]; ASO 0.04 μM): 137 % baseline value | AR mRNA levels (% baseline value) after treatment with DHT (AR mRNA [1]; ASO 0.20 μM): 135 % baseline value | AR mRNA levels (% baseline value) after treatment with DHT (AR mRNA [1]; ASO 1.0 μM): 136 % baseline value | AR mRNA levels (% baseline value) after treatment with DHT (AR mRNA [1]; ASO 5.0 μM): 100 % baseline value | AR mRNA levels (% baseline value) after treatment with R1881 (AR mRNA [1]; ASO 0.04 μM): 131 % baseline value | AR mRNA levels (% baseline value) after treatment with R1881 (AR mRNA [1]; ASO 0.20 μM): 133 % baseline value | AR mRNA levels (% baseline value) after treatment with R1881 (AR mRNA [1]; ASO 1.0 μM): 124 % baseline value | AR mRNA levels (% baseline value) after treatment with R1881 (AR mRNA [1]; ASO 5.0 μM): 99 % baseline value | AR mRNA levels (% baseline value) of cells without AR agonist treatment (AR mRNA [1]; ASO 0.04 μM): 124 % baseline value | AR mRNA levels (% baseline value) of cells without AR agonist treatment (AR mRNA [1]; ASO 0.20 μM): 140 % baseline value | AR mRNA levels (% baseline value) of cells without AR agonist treatment (AR mRNA [1]; ASO 1.0 μM): 132 % baseline value | AR mRNA levels (% baseline value) of cells without AR agonist treatment (AR mRNA [1]; ASO 5.0 μM): 98 % baseline value | PSA mRNA levels (% baseline value) after treatment with DHT ([2]; ASO 0.04 μM): 97 % baseline value | PSA mRNA levels (% baseline value) after treatment with DHT ([2]; ASO 0.20 μM): 86 % baseline value | PSA mRNA levels (% baseline value) after treatment with DHT ([2]; ASO 1.0 μM): 64 % baseline value | PSA mRNA levels (% baseline value) after treatment with DHT ([2]; ASO 5.0 μM): 64 % baseline value | PSA mRNA levels (% baseline value) after treatment with R1881 ([2]; ASO 0.04 μM): 100 % baseline value | PSA mRNA levels (% baseline value) after treatment with R1881 ([2]; ASO 0.20 μM): 93 % baseline value | PSA mRNA levels (% baseline value) after treatment with R1881 ([2]; ASO 1.0 μM): 80 % baseline value | PSA mRNA levels (% baseline value) after treatment with R1881 ([2]; ASO 5.0 μM): 57 % baseline value | PSA mRNA levels (% baseline value) of cells without AR agonist treatment ([2]; ASO 0.04 μM): 106 % baseline value | PSA mRNA levels (% baseline value) of cells without AR agonist treatment ([2]; ASO 0.20 μM): 118 % baseline value | PSA mRNA levels (% baseline value) of cells without AR agonist treatment ([2]; ASO 1.0 μM): 58 % baseline value | PSA mRNA levels (% baseline value) of cells without AR agonist treatment ([2]; ASO 5.0 μM): 87 % baseline value | Percent inhibition of AR mRNA (AR mRNA [3]; 0.02 μM): 0% | Percent inhibition of AR mRNA (AR mRNA [3]; 0.1 μM): 0% | Percent inhibition of AR mRNA (AR mRNA [3]; 0.5 μM): 0% | Percent inhibition of AR mRNA (AR mRNA [3]; 10 μM): 17% | Percent inhibition of C4-2B MR cell proliferation (C4-2B MR cells; 0.04 μM): 11% | Percent inhibition of C4-2B MR cell proliferation (C4-2B MR cells; 0.20 μM): 12% | Percent inhibition of C4-2B MR cell proliferation (C4-2B MR cells; 1.00 μM): 0% | Percent inhibition of C4-2B MR cell proliferation (C4-2B MR cells; 5.00 μM): 24% | Percent inhibition of full-length AR mRNA in C4-2B MR cells (total AR mRNA; 0.04 μM): 0% | Percent inhibition of full-length AR mRNA in C4-2B MR cells (total AR mRNA; 0.20 μM): 0% | Percent inhibition of full-length AR mRNA in C4-2B MR cells (total AR mRNA; 1.00 μM): 0% | Percent inhibition of full-length AR mRNA in C4-2B MR cells (total AR mRNA; 5.00 μM): 23% | Percent inhibition of KLK3 mRNA in C4-2B MR cells (KLK3 mRNA; 0.04 μM): 0% | Percent inhibition of KLK3 mRNA in C4-2B MR cells (KLK3 mRNA; 0.20 μM): 0% | Percent inhibition of KLK3 mRNA in C4-2B MR cells (KLK3 mRNA; 1.00 μM): 47% | Percent inhibition of KLK3 mRNA in C4-2B MR cells (KLK3 mRNA; 5.00 μM): 56%
